Laboratory results published in patent publication US20100168102A9, “Amide Derivatives as Kinase Inhibitors” (Devgen NV, priority 2005, published 2010).

Assays:
human ROCKα/ROCKII mix = target: T1, human ROCKα/ROCKII mix (Homo sapiens, UniProt O75116); experiment: Biochemical assay for ROCK (fluorescence polarization, ROCK IMAP Kit)
T1 construct: purchased Upstate Biotechnology 14-451

PKC epsilon = target: T2, PKC epsilon (Homo sapiens, UniProt Q02156); experiment: Biochemical assay for PKC epsilon (fluorescence polarization, Protein Kinase C Assay Kit, Red); details: read-out: IC50 μM PKCε
T2 construct: purchased Invitrogen P2282
T2 sequence (Q02156 1-737): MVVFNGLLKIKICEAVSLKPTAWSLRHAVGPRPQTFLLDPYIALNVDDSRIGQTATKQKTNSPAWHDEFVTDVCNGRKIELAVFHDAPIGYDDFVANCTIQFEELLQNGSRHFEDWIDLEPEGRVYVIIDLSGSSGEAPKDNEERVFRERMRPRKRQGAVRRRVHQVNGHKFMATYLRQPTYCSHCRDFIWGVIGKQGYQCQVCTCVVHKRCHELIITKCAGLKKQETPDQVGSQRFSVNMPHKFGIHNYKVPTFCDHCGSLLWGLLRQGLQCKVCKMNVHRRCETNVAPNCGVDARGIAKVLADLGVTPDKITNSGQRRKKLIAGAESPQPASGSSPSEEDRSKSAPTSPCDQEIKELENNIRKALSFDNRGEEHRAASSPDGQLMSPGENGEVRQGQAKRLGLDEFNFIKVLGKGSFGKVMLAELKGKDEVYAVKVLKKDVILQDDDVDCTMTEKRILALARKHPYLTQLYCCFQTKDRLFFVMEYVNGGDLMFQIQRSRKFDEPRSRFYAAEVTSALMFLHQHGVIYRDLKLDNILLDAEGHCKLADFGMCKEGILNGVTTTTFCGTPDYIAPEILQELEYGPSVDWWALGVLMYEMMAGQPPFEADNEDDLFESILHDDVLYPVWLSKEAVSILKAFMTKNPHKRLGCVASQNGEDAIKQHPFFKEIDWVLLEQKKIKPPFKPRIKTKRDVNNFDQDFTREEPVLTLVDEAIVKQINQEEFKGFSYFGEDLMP
In short: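 PKC epsilon at 10 ng/ml final was preincubated 30 min at room temperature with compound in HEPES pH 7.4 with DTT and Triton X-100. ATP/protein substrate was then added in buffer with MgCl2 and CaCl2 for 80 min. The reaction was stopped with EDTA, phosphorylation was detected by fluorescence polarization with rhodamine tracer and anti-phosphoserine antibody, and IC50 values came from curve fits.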

T1 sequence (O75116 11-552 limits assumed): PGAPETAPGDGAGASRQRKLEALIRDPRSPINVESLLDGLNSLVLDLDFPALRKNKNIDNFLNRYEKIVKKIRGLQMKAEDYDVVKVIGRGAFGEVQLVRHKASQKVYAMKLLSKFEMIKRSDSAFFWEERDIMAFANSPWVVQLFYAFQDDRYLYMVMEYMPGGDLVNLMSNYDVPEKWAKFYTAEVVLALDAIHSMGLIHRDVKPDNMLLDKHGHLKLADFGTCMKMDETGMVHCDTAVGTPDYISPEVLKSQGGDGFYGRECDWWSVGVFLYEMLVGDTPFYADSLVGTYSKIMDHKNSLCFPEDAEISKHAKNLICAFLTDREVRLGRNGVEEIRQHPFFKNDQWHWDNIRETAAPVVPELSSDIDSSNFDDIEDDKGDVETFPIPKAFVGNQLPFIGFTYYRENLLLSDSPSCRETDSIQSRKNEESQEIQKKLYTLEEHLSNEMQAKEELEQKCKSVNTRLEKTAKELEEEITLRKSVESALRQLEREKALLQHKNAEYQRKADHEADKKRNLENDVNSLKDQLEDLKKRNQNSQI

SMILES	IC50 (human ROCKα/ROCKII mix) [µM]	IC50 (PKC epsilon) [µM]
NC(c1ccc(C(=O)Nc2ccncc2)cc1)C1CCCN1C(=O)C1(c2ccc(F)cc2)CCC1 (stereo not drawn) [Compound 575, 4-(Amino-{1-[1-(4-fluoro-phenyl)-cyclobutanecarbonyl]-pyrrolidin-2-yl}-methyl)-N-pyridin-4-yl-benzamide]	0.5 to 5	0.5 to 5
NC(c1ccc(C(=O)Nc2ccncc2)cc1)C1CCCN1C(=O)Cc1cccc(F)c1F (stereo not drawn) [Compound 578, 4-(Amino-{1-[2-(2,3-difluoro-phenyl)-acetyl]-pyrrolidin-2-yl}-methyl)-N-pyridin-4-yl-benzamide]	0.5 to 5	0.5 to 5
NC(c1ccc(C(=O)Nc2ccncc2)cc1)C1CCCN1C(=O)Cc1cc(F)ccc1F (stereo not drawn) [Compound 579, 4-(Amino-{1-[2-(2,5-difluoro-phenyl)-acetyl]-pyrrolidin-2-yl}-methyl)-N-pyridin-4-yl-benzamide]	0.5 to 5	5 to 50
NC(c1ccc(C(=O)Nc2ccncc2)cc1)C1CCCN1C(=O)Cc1c(F)cccc1F (stereo not drawn) [Compound 584, 4-(Amino-{1-[2-(2,6-difluoro-phenyl)-acetyl]-pyrrolidin-2-yl}-methyl)-N-pyridin-4-yl-benzamide]	0.5 to 5	5 to 50
NC(c1ccc(C(=O)Nc2ccncc2)cc1)C1CCCN1C(=O)C1(c2ccc(F)c(F)c2)CC1 (stereo not drawn) [Compound 587, 4-(Amino-{1-[1-(3,4-difluoro-phenyl)-cyclopropanecarbonyl]-pyrrolidin-2-yl}-methyl)-N-pyridin-4-yl-benzamide]	0.5 to 5	0.5 to 5
NC(c1ccc(C(=O)Nc2ccncc2)cc1)C1CCCN1C(=O)Cc1c(Cl)cccc1Cl (stereo not drawn) [Compound 590, 4-(Amino-{1-[2-(2,6-dichloro-phenyl)-acetyl]-pyrrolidin-2-yl}-methyl)-N-pyridin-4-yl-benzamide]	0.5 to 5	5 to 50
NC(c1ccc(C(=O)Nc2ccncc2)cc1)C1CCCN1C(=O)Cc1ccc(Cl)cc1Cl (stereo not drawn) [Compound 591, 4-(Amino-{1-[2-(2,4-dichloro-phenyl)-acetyl]-pyrrolidin-2-yl}-methyl)-N-pyridin-4-yl-benzamide]	0.5 to 5	5 to 50
NC(c1ccc(C(=O)Nc2ccncc2)cc1)C1CCCN1C(=O)Cc1ccc(Cl)c(Cl)c1 (stereo not drawn) [Compound 592, 4-(Amino-{1-[2-(3,4-dichloro-phenyl)-acetyl]-pyrrolidin-2-yl}-methyl)-N-pyridin-4-yl-benzamide]	0.5 to 5	0.5 to 5
CC(C)(C(=O)N1CCCC1C(N)c1ccc(C(=O)Nc2ccncc2)cc1)c1ccc(Cl)c(Cl)c1 (stereo not drawn) [Compound 593, 4-(Amino-{1-[2-(3,4-dichloro-phenyl)-2-methyl-propionyl]-pyrrolidin-2-yl}-methyl)-N-pyridin-4-yl-benzamide]	0.5 to 5	5 to 50
NC(c1ccc(C(=O)Nc2ccncc2)cc1)C1CCCN1C(=O)C1(c2ccc(Cl)c(Cl)c2)CC1 (stereo not drawn) [Compound 594, 4-(Amino-{1-[1-(3,4-dichloro-phenyl)-cyclopropanecarbonyl]-pyrrolidin-2-yl}-methyl)-N-pyridin-4-yl-benzamide]	0.5 to 5	0.5 to 5
NC(c1ccc(C(=O)Nc2ccncc2)cc1)C1CCCN1C(=O)C1(c2ccc(Cl)cc2Cl)CC1 (stereo not drawn) [Compound 596, 4-(Amino-{1-[1-(2,4-dichloro-phenyl)-cyclopropanecarbonyl]-pyrrolidin-2-yl}-methyl)-N-pyridin-4-yl-benzamide]	0.5 to 5	5 to 50
NC(c1ccc(C(=O)Nc2ccncc2)cc1)C1CCCN1C(=O)Cc1c(F)cccc1Cl (stereo not drawn) [Compound 597, 4-(Amino-{1-[2-(2-chloro-6-fluoro-phenyl)-acetyl]-pyrrolidin-2-yl}-methyl)-N-pyridin-4-yl-benzamide]	0.5 to 5	5 to 50
NC(c1ccc(C(=O)Nc2ccncc2)cc1)C1CCCN1C(=O)Cc1ccc(F)cc1Cl (stereo not drawn) [Compound 599, 4-(Amino-{1-[2-(2-chloro-4-fluoro-phenyl)-acetyl]-pyrrolidin-2-yl}-methyl)-N-pyridin-4-yl-benzamide]	0.5 to 5	0.5 to 5
NC(c1ccc(C(=O)Nc2ccncc2)cc1)C1CCCN1C(=O)C1(c2ccc(F)cc2Cl)CC1 (stereo not drawn) [Compound 600, 4-(Amino-{1-[1-(2-chloro-4-fluoro-phenyl)-cyclopropanecarbonyl]-pyrrolidin-2-yl}-methyl)-N-pyridin-4-yl-benzamide]	0.5 to 5	0.5 to 5
NC(c1ccc(C(=O)Nc2ccncc2)cc1)C1CCCN1C(=O)C1(c2ccc(Cl)cc2F)CC1 (stereo not drawn) [Compound 605, 4-(Amino-{1-[1-(4-chloro-2-fluoro-phenyl)-cyclopropanecarbonyl]-pyrrolidin-2-yl}-methyl)-N-pyridin-4-yl-benzamide]	0.5 to 5	0.5 to 5
CC(C)(C(=O)N1CCCC1C(N)c1ccc(C(=O)Nc2ccncc2)cc1)c1ccc(F)c(Cl)c1 (stereo not drawn) [Compound 606, 4-(Amino-{1-[2-(3-chloro-4-fluoro-phenyl)-2-methyl-propionyl]-pyrrolidin-2-yl}-methyl)-N-pyridin-4-yl-benzamide]	0.5 to 5	0.5 to 5

The next lines start with the values.

IC50 (human ROCKα/ROCKII mix) [µM]	IC50 (PKC epsilon) [µM]	SMILES
0.5 to 5	0.5 to 5	NC(c1ccc(C(=O)Nc2ccncc2)cc1)C1CCCN1C(=O)C1(c2ccc(F)cc2)CC1 (stereo not drawn) [Compound 574, 4-(Amino-{1-[1-(4-fluoro-phenyl)-cyclopropanecarbonyl]-pyrrolidin-2-yl}-methyl)-N-pyridin-4-yl-benzamide]
0.5 to 5	0.5 to 5	NC(c1ccc(C(=O)Nc2ccncc2)cc1)C1CCCN1C(=O)C1(c2ccc(F)cc2)CCCC1 (stereo not drawn) [Compound 576, 4-(Amino-{1-[1-(4-fluoro-phenyl)-cyclopentanecarbonyl]-pyrrolidin-2-yl}-methyl)-N-pyridin-4-yl-benzamide]
0.05 to 0.5	0.5 to 5	NC(c1ccc(C(=O)Nc2ccncc2)cc1)C1CCCN1C(=O)Cc1ccc(F)cc1F (stereo not drawn) [Compound 580, 4-(Amino-{1-[2-(2,4-difluoro-phenyl)-acetyl]-pyrrolidin-2-yl}-methyl)-N-pyridin-4-yl-benzamide]
0.5 to 5	0.5 to 5	NC(c1ccc(C(=O)Nc2ccncc2)cc1)C1CCCN1C(=O)C1(c2ccc(F)cc2F)CC1 (stereo not drawn) [Compound 582, 4-(Amino-{1-[1-(2,4-difluoro-phenyl)-cyclopropanecarbonyl]-pyrrolidin-2-yl}-methyl)-N-pyridin-4-yl-benzamide]
0.5 to 5	5 to 50	NC(c1ccc(C(=O)Nc2ccncc2)cc1)C1CCCN1C(=O)Cc1cc(F)cc(F)c1 (stereo not drawn) [Compound 583, 4-(Amino-{1-[2-(3,5-difluoro-phenyl)-acetyl]-pyrrolidin-2-yl}-methyl)-N-pyridin-4-yl-benzamide]
0.5 to 5	0.5 to 5	NC(c1ccc(C(=O)Nc2ccncc2)cc1)C1CCCN1C(=O)C1(c2ccc(F)c(F)c2)CCC1 (stereo not drawn) [Compound 588, 4-(Amino-{1-[1-(3,4-difluoro-phenyl)-cyclobutanecarbonyl]-pyrrolidin-2-yl}-methyl)-N-pyridin-4-yl-benzamide]
0.5 to 5	0.5 to 5	NC(c1ccc(C(=O)Nc2ccncc2)cc1)C1CCCN1C(=O)C1(c2ccc(F)c(F)c2)CCCC1 (stereo not drawn) [Compound 589, 4-(Amino-{1-[1-(3,4-difluoro-phenyl)-cyclopentanecarbonyl]-pyrrolidin-2-yl}-methyl)-N-pyridin-4-yl-benzamide]
0.5 to 5	0.5 to 5	NC(c1ccc(C(=O)Nc2ccncc2)cc1)C1CCCN1C(=O)C1(c2ccc(Cl)c(Cl)c2)CCC1 (stereo not drawn) [Compound 595, 4-(Amino-{1-[1-(3,4-dichloro-phenyl)-cyclobutanecarbonyl]-pyrrolidin-2-yl}-methyl)-N-pyridin-4-yl-benzamide]
0.5 to 5	5 to 50	NC(c1ccc(C(=O)Nc2ccncc2)cc1)C1CCCN1C(=O)Cc1ccc(Cl)cc1F (stereo not drawn) [Compound 598, 4-(Amino-{1-[2-(4-chloro-2-fluoro-phenyl)-acetyl]-pyrrolidin-2-yl}-methyl)-N-pyridin-4-yl-benzamide]
0.5 to 5	5 to 50	NC(c1ccc(C(=O)Nc2ccncc2)cc1)C1CCCN1C(=O)Cc1cccc(Cl)c1F (stereo not drawn) [Compound 602, 4-(Amino-{1-[2-(3-chloro-2-fluoro-phenyl)-acetyl]-pyrrolidin-2-yl}-methyl)-N-pyridin-4-yl-benzamide]
0.05 to 0.5	0.5 to 5	NC(c1ccc(C(=O)Nc2ccncc2)cc1)C1CCCN1C(=O)Cc1ccc(F)c(Cl)c1 (stereo not drawn) [Compound 603, 4-(Amino-{1-[2-(3-chloro-4-fluoro-phenyl)-acetyl]-pyrrolidin-2-yl}-methyl)-N-pyridin-4-yl-benzamide]
